# Activity calls are given as the source filed them. The rule behind the calls is not given here.
# What was measured:
# [1] = Downregulation of HDAC8 protein expression in human NCI-H1975 cells assessed as fold change at 0.05 uM incubated for 24 hrs by immunoblotting analysis (reference value: 1); assay type: functional
# [2] = Toxicity in athymic nude BALB/c mouse xenografted with human NCI-H1975 cells assessed as effect on BUN level at 6 mg/kg, ip administered 5 times a week for 3 weeks and measured on day 22; assay type: organism-based; details: in vivo, 528 h, time 22 day
# [3] = Downregulation of HDAC1 protein expression in human MDA-MB-231 cells assessed as fold change at 0.1 uM incubated for 24 hrs by immunoblotting analysis (reference value: 1); assay type: functional
# [4] = Effect on HDAC5 protein expression in human NCI-H1975 cells assessed as fold change at 0.1 uM incubated for 24 hrs by immunoblotting analysis (reference value: 1); assay type: functional
# Histone deacetylase = assay: Inhibition of HDAC in human HeLa cells nuclear extract; assay type: subcellular, Nucleus
# [5] = Effect on HDAC6 protein expression in human MDA-MB-231 cells assessed as fold change at 0.1 uM incubated for 24 hrs by immunoblotting analysis (reference value: 1); assay type: functional
# [6] = Effect on HDAC4 protein expression in human MDA-MB-231 cells assessed as fold change at 0.1 uM incubated for 24 hrs by immunoblotting analysis (reference value: 1); assay type: functional
# NCI-H1975 [7] = assay: cells; assay type: functional, cell-based; details: Homo sapiens, NCI-H1975, 48 h
# Description: Cytotoxicity against human NCI-H1975 cells assessed as inhibition of cell growth incubated for 48 hrs by Celltiter-glo assay
# [8] = Toxicity in athymic nude BALB/c mouse xenografted with human NCI-H1975 cells assessed as reduction in body weight at 6 mg/kg, ip administered 5 times a week for 3 weeks and measured on day 22; assay type: organism-based; details: in vivo, 528 h, time 22 day
# [9] = Effect on HDAC11 protein expression in human NCI-H1975 cells assessed as fold change at 0.05 uM incubated for 24 hrs by immunoblotting analysis (reference value: 1); assay type: functional
# [10] = Toxicity in athymic nude BALB/c mouse xenografted with human NCI-H1975 cells assessed as effect on ALT level at 6 mg/kg, ip administered 5 times a week for 3 weeks and measured on day 22; assay type: organism-based; details: in vivo, 528 h, time 22 day
# [11] = Downregulation of HDAC3 protein expression in human NCI-H1975 cells assessed as fold change at 0.05 uM incubated for 24 hrs by immunoblotting analysis (reference value: 1); assay type: functional
# [12] = Downregulation of HDAC7 protein expression in human MDA-MB-231 cells assessed as fold change at 0.1 uM incubated for 24 hrs by immunoblotting analysis (reference value: 1); assay type: functional
# Histone deacetylase 3 = Histone deacetylase 3 (Homo sapiens, UniProt O15379); assay: Inhibition of recombinant human HDAC3 using acetylated luminogenic substrate incubated for 10 mins by ultra-glo recombinant firefly luciferase based luminescence assay
# Chain of Histone deacetylase 3 (O15379 whole entry): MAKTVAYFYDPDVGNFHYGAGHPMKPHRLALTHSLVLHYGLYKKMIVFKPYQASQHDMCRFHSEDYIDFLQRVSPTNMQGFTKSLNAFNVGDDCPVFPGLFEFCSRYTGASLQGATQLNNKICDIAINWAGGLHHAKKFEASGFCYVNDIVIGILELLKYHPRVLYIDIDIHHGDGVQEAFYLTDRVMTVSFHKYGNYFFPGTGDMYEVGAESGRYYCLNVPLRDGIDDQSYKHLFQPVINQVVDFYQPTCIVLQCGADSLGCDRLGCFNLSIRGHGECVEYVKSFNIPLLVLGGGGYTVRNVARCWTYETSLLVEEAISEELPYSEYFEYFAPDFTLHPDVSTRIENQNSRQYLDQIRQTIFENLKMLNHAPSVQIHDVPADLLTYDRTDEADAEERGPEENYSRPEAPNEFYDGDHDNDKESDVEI
# NCI-H1975 [13] = assay: Antitumor activity against human NCI-H1975 cells xenografted in athymic nude BALB/c mouse assessed as reduction in tumor growth at 6 mg/kg, ip administered 5 times a week for 3 weeks by vernier caliper method; assay type: functional, organism-based
# [14] = Downregulation of HDAC7 protein expression in human NCI-H1975 cells assessed as fold change at 0.1 uM incubated for 24 hrs by immunoblotting analysis (reference value: 1); assay type: functional
# [15] = Upregulation of acetylated H3 protein expression in human MDA-MB-231 cells assessed as fold change at 0.05 uM incubated for 24 hrs by immunoblotting analysis (reference value: 1); assay type: functional
# MDA-MB-231 = assay: Antitumor activity against human MDA-MB-231 cells xenografted in athymic nude BALB/c mouse assessed as reduction in tumor growth at 3 mg/kg, ip administered 5 times a week for 7 weeks by vernier caliper method; assay type: functional, organism-based
# [16] = Effect on HDAC9 protein expression in human MDA-MB-231 cells assessed as fold change at 0.05 uM incubated for 24 hrs by immunoblotting analysis (reference value: 1); assay type: functional
# [17] = Downregulation of HDAC2 protein expression in human NCI-H1975 cells assessed as fold change at 0.05 uM incubated for 24 hrs by immunoblotting analysis (reference value: 1); assay type: functional
# [18] = Effect on HDAC11 protein expression in human NCI-H1975 cells assessed as fold change at 0.1 uM incubated for 24 hrs by immunoblotting analysis (reference value: 1); assay type: functional
# [19] = Upregulation of acetylated H3 protein expression in human NCI-H1975 cells assessed as fold change at 0.05 uM incubated for 24 hrs by immunoblotting analysis (reference value: 1); assay type: functional
# [20] = Downregulation of HDAC5 protein expression in human MDA-MB-231 cells assessed as fold change at 0.1 uM incubated for 24 hrs by immunoblotting analysis (reference value: 1); assay type: functional
# [21] = Upregulation of acetylated H3 protein expression in human MDA-MB-231 cells assessed as fold change at 0.1 uM incubated for 24 hrs by immunoblotting analysis (reference value: 1); assay type: functional
# [22] = Downregulation of HDAC7 protein expression in human NCI-H1975 cells assessed as fold change at 0.05 uM incubated for 24 hrs by immunoblotting analysis (reference value: 1); assay type: functional
# [23] = Upregulation of acetylated H4 protein expression in human NCI-H1975 cells assessed as fold change at 0.05 uM incubated for 24 hrs by immunoblotting analysis (reference value: 1); assay type: functional
# [24] = Downregulation of HDAC6 protein expression in human MDA-MB-231 cells assessed as fold change at 0.05 uM incubated for 24 hrs by immunoblotting analysis (reference value: 1); assay type: functional
# Histone deacetylase 9 = Histone deacetylase 9 (Homo sapiens, UniProt Q9UKV0); assay: Inhibition of recombinant human HDAC9 using acetylated luminogenic substrate incubated for 10 mins by ultra-glo recombinant firefly luciferase based luminescence assay
# Chain of Histone deacetylase 9 (Q9UKV0 whole entry): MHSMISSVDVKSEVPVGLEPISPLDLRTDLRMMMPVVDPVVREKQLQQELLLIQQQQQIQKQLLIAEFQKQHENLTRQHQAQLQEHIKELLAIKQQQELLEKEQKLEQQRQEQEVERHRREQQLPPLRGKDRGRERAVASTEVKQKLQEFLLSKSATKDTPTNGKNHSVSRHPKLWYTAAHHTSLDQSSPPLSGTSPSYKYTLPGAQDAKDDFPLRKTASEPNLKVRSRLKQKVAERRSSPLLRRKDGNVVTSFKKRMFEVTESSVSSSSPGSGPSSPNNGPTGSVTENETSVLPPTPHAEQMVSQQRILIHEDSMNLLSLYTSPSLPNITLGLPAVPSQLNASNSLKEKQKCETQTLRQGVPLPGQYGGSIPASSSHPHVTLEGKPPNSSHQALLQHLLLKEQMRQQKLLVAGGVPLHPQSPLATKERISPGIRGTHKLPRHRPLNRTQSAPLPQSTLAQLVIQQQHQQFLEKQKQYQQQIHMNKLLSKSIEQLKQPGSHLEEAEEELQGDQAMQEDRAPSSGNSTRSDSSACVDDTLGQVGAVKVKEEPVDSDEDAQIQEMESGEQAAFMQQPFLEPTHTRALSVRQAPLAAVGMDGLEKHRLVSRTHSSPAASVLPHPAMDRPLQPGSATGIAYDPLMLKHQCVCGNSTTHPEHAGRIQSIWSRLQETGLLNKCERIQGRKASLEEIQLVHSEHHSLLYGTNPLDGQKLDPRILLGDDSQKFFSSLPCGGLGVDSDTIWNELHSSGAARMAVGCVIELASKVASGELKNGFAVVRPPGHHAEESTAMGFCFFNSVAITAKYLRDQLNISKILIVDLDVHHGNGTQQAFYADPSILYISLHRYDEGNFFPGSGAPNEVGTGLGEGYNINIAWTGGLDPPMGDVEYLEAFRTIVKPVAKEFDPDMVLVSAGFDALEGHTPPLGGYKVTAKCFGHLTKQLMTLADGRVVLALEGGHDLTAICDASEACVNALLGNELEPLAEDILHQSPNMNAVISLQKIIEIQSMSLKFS
smiles,measurement,setting,value
CCOc1ccc(-c2nc(C(=O)NCc3ccc(C(=O)NO)cc3)c3[nH]c(=O)n(-c4cccnc4OC)c3n2)cn1,fold change (FC),[1],0.85
same,Activity,[2],Non-Toxic
same,fold change (FC),[3],0.88
same,fold change (FC),[4],1.53
same,IC50,Histone deacetylase,40 nM
same,fold change (FC),[5],1.17
same,fold change (FC),[6],1.01
same,IC50,NCI-H1975 [7],1200 nM
same,Activity,[8],Non-Toxic
same,fold change (FC),[9],1.15
same,Activity,[10],Non-Toxic
same,fold change (FC),[11],0.82
same,fold change (FC),[12],0.58
same,IC50,Histone deacetylase 3,8.8 nM
same,Activity,NCI-H1975 [13],Active
same,fold change (FC),[14],0.79
same,fold change (FC),[15],1.29
same,Activity,MDA-MB-231,Active
same,fold change (FC),[16],1.08
same,fold change (FC),[17],0.77
same,fold change (FC),[18],1.85
same,fold change (FC),[19],1.77
same,fold change (FC),[20],0.99
same,fold change (FC),[21],1.35
same,fold change (FC),[22],0.94
same,fold change (FC),[23],1.7
same,fold change (FC),[24],0.47
same,IC50,Histone deacetylase 9,19.7 nM

# From ChEMBL document CHEMBL5518174 (Eur J Med Chem, 2024)
